From US12440706B2, “Conjugated chemical inducers of degradation and methods of use” (Genentech, Inc., priority 2018, dated 2025) come the findings set out here.

Structures are written as SMILES.

The first test concerns EOL-1 AML xenografts. Nature of the test: EOL-1 AML subcutaneous xenograft efficacy. It is filed as in vivo, mice. Particulars: single IV dose 0.4 mg/kg. The method, then:
Two human AML cell lines, EOL-1 (DSMZ; Braunschweig, Germany) and HL-60 (ATCC, Manassas, VA) were used to establish subcutaneous xenograft models for efficacy evaluation of the degrader-antibody conjugates. Tumor cells (5 million cells suspended in 0.1 mL of Hanks' Balanced Salt Solution supplemented with Matrigel) were inoculated to the flanks of female CB-17 Fox Chase SCID mice (Charles River Lab, Hollister, CA). When mean tumor size reached the desired volume (200-300 mm^3), animals were randomized into groups of n=5, each with similar tumor volume distributions, and each animal received an intraperitoneal dose of a mouse IgG2a anti-ragweed antibody in excess amount (30 mg/kg; to block Fcγ receptors frequently expressed on the surface of AML cells). Four hours later, vehicle or degrader-antibody conjugates were administered to the animals via single intravenous (IV) bolus injections through the tail vein. Tumors were measured in two dimensions (length and width) using calipers and the tumor volume was calculated using the formula: Tumor size (mm^3)=0.5×(length×width×width). The results were plotted as mean tumor volume+/−SEM of each group over time. Treatment groups were not blinded during tumor measurement.
For `Cc1ncsc1-c1ccc(CNC(=O)[C@@H]2C[C@@H](O)CN2C(=O)[C@@H](NC(=O)CCCCCCCCCCNC(=O)c2cc3c(cc2CS(C)(=O)=O)-c2cn(C)c(=O)c4[nH]cc(c24)CN3c2ncc(F)cc2F)C(C)(C)C)cc1` [unconjugated CIDE], the “efficacy in the EOL-1 model” value is reported as “no efficacy”.

For a further test, the target named is T1, ERα (Homo sapiens, UniProt P03372).
T1 construct: ERα degradation percent activity in MCF7 neo/HER2 cells
T1 sequence (P03372 1-595): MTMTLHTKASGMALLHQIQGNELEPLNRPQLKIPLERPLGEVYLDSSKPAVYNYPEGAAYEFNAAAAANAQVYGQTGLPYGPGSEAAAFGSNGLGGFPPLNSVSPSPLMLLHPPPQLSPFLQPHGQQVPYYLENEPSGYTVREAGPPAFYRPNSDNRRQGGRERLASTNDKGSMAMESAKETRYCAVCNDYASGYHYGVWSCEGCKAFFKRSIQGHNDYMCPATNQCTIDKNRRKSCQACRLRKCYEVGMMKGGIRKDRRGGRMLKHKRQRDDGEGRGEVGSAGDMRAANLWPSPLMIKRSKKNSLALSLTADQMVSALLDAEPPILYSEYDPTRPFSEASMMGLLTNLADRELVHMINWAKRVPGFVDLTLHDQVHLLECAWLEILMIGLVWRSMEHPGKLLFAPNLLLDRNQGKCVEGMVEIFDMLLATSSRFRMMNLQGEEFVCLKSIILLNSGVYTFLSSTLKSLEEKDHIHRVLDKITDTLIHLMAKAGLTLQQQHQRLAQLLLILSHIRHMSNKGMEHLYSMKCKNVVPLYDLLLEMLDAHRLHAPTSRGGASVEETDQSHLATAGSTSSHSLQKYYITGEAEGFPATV
The test can be described thus: Degradation of ERα by Ab-CIDEs (Example 3, FIGS. 1-3, Tables 2-4). The settings on record: ERα degradation by Ab-CIDE. The class given is cell-based.
By DC50 is commonly meant the concentration at which degradation of the target reaches its halfway point. High values mean degradation only at high concentration, low ones degradation at low concentration. As for `CC/C(=C(/c1ccc(OCCN(C)C(=O)CCOCCOCCC(=O)N[C@H](C(=O)N2C[C@H](OC(=O)OCC(C)(C)SS(C)(=O)=O)C[C@H]2C(=O)NCc2ccc(-c3scnc3C)cc2)C(C)(C)C)cc1)c1ccc(OP(=O)(O)O)cc1)c1ccccc1` [Thio Hu Anti- Her2 7C2 high DAR [LC:K149C HC:L174C HC:Y373C]], the DC50 is 47.4 nM and the Sinf is reported as −94%.

On to `CC/C(=C(\c1ccc(O)cc1)c1ccc(OCCN(C)C(=O)CCOCCOCCC(=O)N[C@H](C(=O)N2C[C@H](OC(=O)OCC(C)(C)SS(C)(=O)=O)C[C@H]2C(=O)NCc2ccc(-c3scnc3C)cc2)C(C)(C)C)cc1)c1ccccc1` [Thio Hu Anti- CD22 10F4v3 high DAR [LC:K149C HC:L174C Y373C]], for which half-maximal degradation (DC50) was put at 304 nM and the Sinf is −92%. The like results for `CC/C(=C(/c1ccc(OCCN(C)C(=O)CCOCCOCCC(=O)N[C@H](C(=O)N2C[C@H](OC(=O)OCC(C)(C)SS(C)(=O)=O)C[C@H]2C(=O)NCc2ccc(-c3scnc3C)cc2)C(C)(C)C)cc1)c1ccc(OP(=O)(O)O)cc1)c1ccccc1` [Thio Hu Anti- CD22 10F4v3 high DAR [LC:K149C HC:L174C HC:Y37] were, in that order, 1270 nM and −92%. The like results for `CC/C(=C(\c1ccc(O)cc1)c1ccc(OCCN(C)C(=O)CCOCCOCCC(=O)N[C@H](C(=O)N2C[C@H](OC(=O)OCC(C)(C)SS(C)(=O)=O)C[C@H]2C(=O)NCc2ccc(-c3scnc3C)cc2)C(C)(C)C)cc1)c1ccccc1` [Thio Hu Anti- Her2 7C2 high DAR [LC:K149C HC:L174C HC:Y373C]] were, in that order, 27.9 nM and −93%.
